Data published in article PMC8307506, “Identification of Dihydromyricetin and Metabolites in Serum and Brain Associated with Acute Anti-Ethanol Intoxicating Effects in Mice” (International Journal of Molecular Sciences, 2021).
Like-named read-outs stand apart in the source and are kept apart here.

Experiment: Serum pharmacokinetics of DHM after PO and IP administration
Assay type: in vivo, mice
Conditions: for Tmax / half-life / Cmax / AUC(0-t): C57BL/6J, mouse, serum; for half-life: read-out: Serum T1/2 (converted); for IP AUC0→24 relative to PO AUC0→24: DHM 50 mg/kg; for Cmax / AUC(0-t): 50 mg/kg; for AUC(0-t): read-out: Serum AUC0→24
Method: Eight-week-old male and female C57BL/6J mice (Jackson’s Laboratories, Bar Harbor, ME, USA) were housed 4 mice to a cage (separated by sex) and maintained on 12-h light, 12-h dark cycles (lights on at 0700 h) in the animal facility at the Department of Animal Sciences, Rutgers University. Following 1-week acclimation, animals were given ad libitum access to water and a polyphenol-free diet (PFD; 3.82 kcal/g, 10% fat, 20% protein, 70% carbohydrate; D12450H; Research Diets, Inc., New Brunswick, NJ, USA) for at least 10 days. For PK studies, after an overnight fast, mice were administered 50 mg/kg DHM (dissolved in 0.9% saline with 10% DMSO) by either IP injection or oral gavage. Oral gavage was performed using single-use, sterile plastic feeding tubes for mice (20 ga × 30 mm; cat# FTP-20-30, Instech Laboratories, (Plymouth Meeting, PA, USA). Mice were deeply anesthetized with 5% isoflurane mixed with oxygen, and blood was collected by cardiac puncture. Following cardiac puncture, animals were exsanguinated and transcardial perfusion with 0.9% saline was performed to ensure blood removal from the brain tissue. Blood and brain samples were collected from a total of 85 mice at 0.25, 0.75, 1.5, 3, 6, 12, 24 h (3–4 mice for each sex and timepoint). Tissues were immediately homogenized with 0.2% formic acid at 1:2 (w/v), and frozen at −80 °C until analysis. Blood was centrifuged at 3000× g for 10 min at 4 °C to isolate serum. For efficacy studies, mice (n = 8/sex) were fasted at 5 h prior to Ethanol gavage 5 g/kg (37% Ethanol in water). DHM 50 mg/kg IP (dissolved in 0.9% saline with 10% DMSO) was administered at 0, 15, 45, 90 and 180 min prior to Ethanol oral gavage. Each mouse was tested at each time point 7 days apart over 6-week period. At the time of Ethanol gavage, mice were placed in oversized conical holders (L: 152 mm X W: 37 mm) and observed for ability to return upright upon being placed in a supine position. Duration of LORR was determined by ability to return upright 3 times within 30 s. To determine whether ethanol-induced tolerance developed, one week (Week 1; Baseline) prior to the 6-week repeated DHM dosing study all mice were oral dose with ethanol (5 g/kg) without any IP injection and LORR was measured. Mice were then re-tested in a similar fashion with oral ethanol 1 week after the DHM 6-week period (Week 8; Post). […] All animal studies were approved by the Institutional Animal Care and Use Committee of Rutgers University (Bello; PROTO999900014, OLAW #A3262-01, 15 March 2017) and complied with NIH Guide for the Care and Use of Laboratory Animals.
All serum samples were stored at −80 °C and conditioned to room temperature prior to analysis. An aliquot of 100 µL of serum, 20 µL 4M HCl, and 50 µL of internal standard (IS) solution (417 ng/mL isoquercetin in EtOAc) were combined in an Eppendorf tube. An aliquot of 500 µL of EtOAc was added and samples were vortexed for 30 s. Samples were then centrifuged at 3000× g for 2 min and the supernatant transferred to a glass vial. Samples were extracted 2 more times with EtOAc and the supernatant added to the corresponding vial containing 10 µL of 2% ascorbic acid in methanol (MeOH). Samples were then dried under vacuum, reconstituted with 100 µL of 45% MeOH in water with 0.1% formic acid (FA), centrifuged at 16,000× g for 10 min and transferred to an HPLC vial for analysis.
An Agilent 1290 Infinity II UPLC system interfaced with an Agilent 6470 Triple Quadrupole Mass Spectrometer with an electrospray ionization source (Agilent Technology, Palo Alto, CA, USA) was used for sample analysis. An Waters Acquity UPLC BEH C8 column (2.1 × 150 mm, 1.7 μm) (Milford, MA, USA) column with a VanGuard Acquity C8 guard column (2.1 × 5 mm, 1.7 μm) (Milford, MA, USA) was used for chromatographic separation. The binary mobile phases consisted of water with 0.1% FA (phase A) and acetonitrile (ACN) with 0.1% formic acid (phase B). The flow rate was set at 0.450 mL/min. […]

[1] = female, ip, female mice, DHM 50 mg/kg IP
[2] = female, ip, female mice, DHM 50 mg/kg IP, mean ± SEM
[3] = female, po, female mice, DHM 50 mg/kg PO
[4] = female, po, female mice, DHM 50 mg/kg PO, mean ± SEM
[5] = male, ip, male mice, DHM 50 mg/kg IP
[6] = male, ip, male mice, DHM 50 mg/kg IP, mean ± SEM
[7] = male, po, male mice, DHM 50 mg/kg PO
[8] = male, po, male mice, DHM 50 mg/kg PO, mean ± SEM

Q: With `O=C1c2c(O)cc(O)cc2O[C@H](c2cc(O)c(O)c(O)c2)[C@H]1O` [DHM, Dihydromyricetin] as the compound, how does the Tmax (female mice, DHM 50 mg/kg IP) read?
A: Its Tmax is 15 min.

Q: What about the half-life (female mice, DHM 50 mg/kg IP) of the same compound?
A: Its half-life is 45.6 min.

Q: What about the Tmax (female mice, DHM 50 mg/kg PO) of the same compound?
A: Its Tmax is 15 min.

Q: What about the half-life (female mice, DHM 50 mg/kg PO) of the same compound?
A: Its half-life is 110 min.

Q: And the Tmax (male mice, DHM 50 mg/kg IP)?
A: Its Tmax is 15 min.

Q: What about the half-life (male mice, DHM 50 mg/kg IP) of the same compound?
A: The half-life was 95.4 min.

Q: What about the Tmax (male mice, DHM 50 mg/kg PO) of the same compound?
A: The Tmax was 15 min.

Q: And the half-life (male mice, DHM 50 mg/kg PO)?
A: The half-life was 115 min.

Q: And the “PO exposure levels in male mice relative to female mice” value (DHM 50 mg/kg PO)?
A: Its value is 3.5 times.

Q: And the “IP AUC0→24 relative to PO AUC0→24” value (female mice)?
A: Its value is 23.8 fold.

Q: What about the “Serum AUC0→24” value (female mice, DHM 50 mg/kg PO) of the same compound?
A: The value was 0.7 µM·h.

Q: And the “IP AUC0→24 relative to PO AUC0→24” value (female mice, listed as dihydromyricetin)?
A: Its value is 7.2 fold.

Q: And the Cmax [1]?
A: Its Cmax is 23.8 µM.

Q: What about the Cmax [2] of the same compound?
A: The Cmax was 23.8 µM.

Q: What about the AUC(0-t) [2] of the same compound?
A: The AUC(0-t) was 17.4 µM·h.

Q: And the AUC(0-t) [1]?
A: The AUC(0-t) was 17.3 µM·h.

Q: And the Cmax [3]?
A: Its Cmax is 0.62 µM.

Q: And the Cmax [4]?
A: The Cmax was 0.623 ± 0.159 µM.

Q: What about the AUC(0-t) [4] of the same compound?
A: The AUC(0-t) was 0.728 ± 0.461 µM·h.

Q: What about the AUC(0-t) [3] of the same compound?
A: Its AUC(0-t) is 0.728 µM·h.

Q: What about the “IP AUC0→24 relative to PO AUC0→24” value (male mice) of the same compound?
A: Its value is 7.2 fold.

Q: What about the “Serum AUC0→24” value (male mice, DHM 50 mg/kg PO) of the same compound?
A: Its value is 2.5 µM·h.

Q: What about the “IP AUC0→24 relative to PO AUC0→24” value (male mice, listed as dihydromyricetin) of the same compound?
A: Its value is 23.8 fold.

Q: What about the Cmax [5] of the same compound?
A: The Cmax was 38.3 µM.

Q: And the Cmax [6]?
A: The Cmax was 38.3 µM.

Q: What about the AUC(0-t) [6] of the same compound?
A: Its AUC(0-t) is 18.1 µM·h.

Q: What about the AUC(0-t) [5] of the same compound?
A: The AUC(0-t) was 18.1 µM·h.

Q: And the Cmax [7]?
A: The Cmax was 1.9 µM.

Q: And the Cmax [8]?
A: The Cmax was 1.89 ± 0.59 µM.

Q: And the AUC(0-t) [8]?
A: Its AUC(0-t) is 2.51 ± 0.988 µM·h.

Q: And the AUC(0-t) [7]?
A: The AUC(0-t) was 2.51 µM·h.
